Results as given in US5876676A, “Preservation of blood platelets” (priority 1996, dated 1999).
Starred links: 1 amine or outer side, 2 acyl side, 3 side chain; linkers in the order of their positions; H or OH if unused. Positions of bridges follow the written chain, without caps; N, C: chain ends. Non-standard residues stand in square brackets, D forms with d. Residues, ends and D or L forms follow the SMILES beside them. Trp(2-yl) = O=C([C@H](Cc1c([*:3])[nH]c2ccccc12)N[*:1])[*:2]; Leu(4R-OH,5-OH) = C[C@](O)(CO)C[C@H](N)C(=O)O; cisHyp = O=C(O)[C@@H]1C[C@H](O)CN1

Legend:
platelets [1] = test: Morphology and cytoskeleton of Quin-2-loaded platelets, resting or activated (light and electron microscopy); format: cell-based, human
Method: (§1) Human blood from healthy volunteers, drawn into 0.1 vol of Aster-Jandl anticoagulant, was centrifuged at 110 g for 10 min. The platelet-rich plasma was gel-filtered through a Sepharose 2B column equilibrated and eluted with a solution containing 145 mM NaCl, 10 mM Hepes, 10 mM glucose, 0.5 mM Na2 HPO4, 5 mM KCl, 2 mM MgCl2, and 0.3% BSA, pH 7.4 (platelet buffer). 2 U/ml apyrase was added to the platelet suspension and the cells were left standing for 60 min. at 37° C. as previously reported (Hartwig, J., and M. DeSisto, 1991 J. Cell Biol. 112:407-425; Hartwig, J., et al. 1989 J. Cell Biol. 109:1571-1579). To maintain cytosolic calcium at or below its resting level during cell activation, cells were loaded with 30 uM Quin-2AM during minutes 30-60 of the rest period. The effect of Quin-2 was reversed by the addition of 1 mM CaCl2 to the bathing media before centrifugation of the Quin 2-loaded cells onto the coverslips or after the cells had been attached and formed filopodia on the coverslip. Glass-adherent, Quin-2 loaded cells were also treated with 1 mM CaCL2 and 20 nM of the ionophore A23187 for 15 seconds (s) and then detergent permeabilized. In some cases, platelets were used directly from platelet-rich plasma by diluting it 1:20 with platelet buffer containing, in addition, 0.1 mM EGTA and 2 U/ml apyrase. The diluted cells were incubated for 30 min. at 37° C. to insure a resting state.
Platelet suspensions were activated by the addition of 1 U/ml of thrombin (hereafter called thrombin-activated) for 15-30 seconds in studies of nucleation activity. Activation was terminated by permeabilizing the cells as detailed below. Glass activation was used for the morphological studies. Cells were glass-activated by centrifugation onto polylysine-coated glass coverslips at 250 g for 5 min. Coverslips were placed in the bottom of multiwell plates (24 or 96 wells), covered with 0.25 ml of platelet suspension, and centrifuged at 37° C. in a Sorvall HB-6000 centrifuge using multiwell carriers.
Light microscopy and electron microscopy of platelets and cytoskeletons were performed according to standard methods, see e.g., Hartwig, J., 1992, J. Cell Biol. 118(6):1421-1442. The localization of gelsolin in platelets was performed by gold labeling of cytoskeletons from resting and activated cells with antibodies to gelsolin. The affinity-purified goat anti-rabbit macrophage gelsolin IgG was described earlier (Hartwig, J., and M. DeSisto, 1991 J. Cell Biol. 112:407-425; Hartwig, J., and P. Shevlin, 1986 J. Cell Biol. 103:1007-1020).

platelets [2] = test: Nucleation activity in lysates from Quin-2-loaded, thrombin-activated platelets; format: cell-based, human
Method: as §1, with “In some cases, platelets were used directly from platelet-rich plasma by diluting it 1:20 with platelet buffer containing, in addition, 0.1 mM EGTA and 2 U/ml apyrase. The diluted cells were incubated for 30 min. at 37° C. to insure a resting state.” left out
The effect of cell lysates on the rate and extent of pyrene-labeled rabbit skeletal muscle actin was determined as described previously (Hartwig, J., and P. Janmey, 1989 Biochim. Biophys. Acta. 1010:64-71). […] The relative contribution of nuclei with barbed or pointed ends in the cell lysates was determined by adding 2 uM cytochalasin B to the pyrene nucleation assay system. […] To determine if the measured stimulation of actin assembly and its decay with time was due to the growth of pyrene-actin addition onto cellular filaments subject to depolymerization in the diluted lysate, 0.1 uM phalloidin or phallacidin was added to the cell lysates during their preparation to stabilize the filaments. […] However, we also determined that the soluble phase from cells permeabilized with detergent in the presence of EGTA contained calcium dependent nucleation activity. […]

[3] = Quin-2-loaded platelets, glass activated

COc1cc(N(CC(=O)OCOC(C)=O)CC(=O)OCOC(C)=O)c2nc(COc3cc(C)ccc3N(CC(=O)OCOC(C)=O)CC(=O)OCOC(C)=O)ccc2c1 [Quin-2AM, acetoxymethyl ester of quin-2]
Effect on structure of resting cells and their cytoskeletons (platelets [1]; 30 uM Quin-2AM loading, light microscope): no effect | Swelling, actin filament severing and extension of lamellipodial networks associated with platelet activation (platelets [1]; quin-2AM prior to activation with thrombin): prevented

CNc1ccc2oc(C[C@H]3O[C@@]4(CC[C@H]3C)O[C@H]([C@H](C)C(=O)c3ccc[nH]3)[C@H](C)C[C@H]4C)nc2c1C(=O)O [A23187]
Cytoskeletons of Quin-2-loaded, glass-activated cells after external calcium plus ionophore (platelets [1]; added external calcium (1 mM CaCl2) with 20 nM A23187, within seconds): completely disrupted

C[C@@H]1NC(=O)[C@H](C[C@@](C)(O)CO)NC(=O)[C@@H]2Cc3c([nH]c4ccccc34)SC[C@H](NC(=O)[C@@H]([C@H](C)O)NC1=O)C(=O)N1C[C@@H](O)C[C@H]1C(=O)N[C@@H](C)C(=O)N2 [phalloidin] (cyclo(A[dT]C[cisHyp]A[Trp(2-yl)][Leu(4R-OH,5-OH)]); thioether 3-6)
Effect on nucleation activity in lysates from Quin-2-loaded cells (platelets [2]; 0.1 uM phalloidin in lysates, Quin-2-loaded, thrombin-activated): no effect

COc1cc(N(CC(=O)O)CC(=O)O)c2nc(COc3cc(C)ccc3N(CC(=O)O)CC(=O)O)ccc2c1 [Quin-2]
Rearrangements of gelsolin on activation (immunoelectron microscopy) (platelets [1]; Quin-2-loaded and activated cells): did not occur | Filopodia length (platelets [1]; [3]): 2-5 um | Morphology after glass activation (platelets [1]; [3]): extend filopodia but not lamellipodia | activity at 30 µM (platelets [2]; Homo sapiens, Platelet, Quin-2-loaded, thrombin-activated, assayed immediately, read-out: Nucleation activity relative to lysates from untreated and activated cells): 28% | Stability of nucleation activity in detergent lysates (platelets [2]; Quin-2-loaded cells, lysates incubated as long as 10 min before assay): no loss in its activity
